Measured values taken from patent US10265321B2, “Uses of salt-inducible kinase (SIK) inhibitors” (Dana-Farber Cancer Institute, Inc., priority 2014, dated 2019).

Columns and labels:
Type in all cases: cell-based, mouse
[1] = tested on: naïve splenic CD4+ T cells differentiated to Treg or Tr1; assay: Treg and Tr1 T cell differentiation, viability, FoxP3 staining and IL-10 ELISA
Method: Balb/c mice were euthanized and splenic CD4+CD62L+ T cells were magnetically enriched (Miltenyi Biotec) to >95% purity and cultured in DMEM media on plates pre-coated with anti-CD3 and anti-CD28 antibodies (clones 145-2C11 and 37.51; BioXCell). Culture media was supplemented with 10 μg/mL anti-IL-4 (clone 11B11; BioXCell), anti-IL-12 (clone C17.8; BioXCell), and anti-IFNγ (clone XMG1.2; BioXCell) as well as TGFβ (2 ng/mL; PeproTech). HG-9-91-01 (100 nM) or DMSO were added at day 0. Cultures were fed with DMEM+IL-2 (10 ng/mL, Peprotech) containing small molecules at day 2 and analyzed at day 4. Cells were stained with blue LIVE/DEADAqua stain (Invitrogen) to discriminate live cells, fixed with Foxp3 Permeabilization Buffer (eBioscience), stained with FITC anti-CD4 (clone RM4-5, Biolegend) and PE anti-Foxp3 (clone FJK-16S, eBioscience) and acquired on a FACSVerse (BD Biosciences). For Th0 and Tr1 differentiations, C57BL/6 mice were euthanized and splenic CD4+CD62L+ T cells were magnetically enriched (Miltenyi Biotec) to >95% purity and cultured in DMEM media on plates pre-coated with anti-CD3 and anti-CD28 antibodies (clones 145-2C11 and 37.51; BioXCell) in the absence of neutralizing antibodies. For Tr1 differentiations, the culture media was supplement with TGFβ (2 ng/mL; PeproTech) and rIL-27 (25 ng/mL; R&D Systems) as described previously (Gagliani N, et al. (2013) Coexpression of CD49b and LAG-3 identifies human and mouse T regulatory type 1 cells. Nature medicine 19(6):739-746). After 4 days, cells were harvested, washed in PBS and stained with LIVE/DEADGreen to discriminate viable cells and eFluor450 anti-CD4 (BioLegend) and acquired on a FACSVerse (BD Biosciences). Absolute cell numbers were enumerated by adding 5000 […] beads (Spherotech) to each well. Analysis was performed using Flowjo (Treestar) excluding samples were significant toxicity was observed. For all differentiation conditions, IL-10 levels were quantified in the culture media at day 4 by ELISA (BD Biosciences).

BMDCs [2] = assay: Multiplex qPCR of transcripts in stimulated BMDCs; settings: 2 days pre-treatment, 4 hr LPS, R848 or zymosan
Method: (§1) Bone marrow-derived DCs were differentiated from C57BL/6 bone marrow in the presence of GM-CSF-conditioned media. CD11c^+ CX3CR1^hi myeloid cells and CD11c^+ CX3CR1^− DCs were isolated from the small intestine lamina propria of Cx3cr1^eGFP/+ mice (12). Detection of cell-surface Thy1.1 expression on BMDCs from 10BiT reporter mice was conducted as described previously (24). Cell viability was estimated by change in total cellular ATP levels using CellTiterGlo assays (Promega). Preparation of recombinant SIK proteins and IC50 measurements were conducted as described previously (21). Total RNA was extracted using a NucleoSpin 96 RNA isolation kit (Macherey-Nagel) followed by cDNA synthesis and multiplex RT-PCR using a microfluidic dynamic array (Fluidigm). The concentrations of TNF-α, IL-6, IL-10, IL-12p40, IL-1β and RANTES in culture supernatants were detected using a FlexSet Cytometric bead array (BD Biosciences). Alternatively, IL-10 secretion was quantified using ELISA (BD Biosciences) or AlphaLISA (PerkinElmer) assays. NO production was estimated based on nitrate content in culture medium using the Greiss reagent.
C57BL/6 mice were euthanized and bone marrow harvested from femurs and tibias as described previously (Graham D B, et al. (2007) An ITAM-signaling pathway controls cross-presentation of particulate but not soluble antigens in dendritic cells. The Journal of experimental medicine 204(12):2889-2897). BMDCs were differentiated DMEM supplemented with 2 mM GlutaMAX, 10% (vol/vol) FBS, penicillin, streptomycin and 2% mouse GM-CSF conditioned media derived from TOPO cells. Cultures were differentiated for 7 days and routinely analyzed for >90% CD11c (APC anti-CD11c clone HL3; BD Biosciences) positivity by flow cytometry before use in experiments. Lentiviral transduction of bone marrow cultures was conducted by addition of 293T culture supernatants containing lentiviral particles encoding the CREB dependent luciferase reporter construct or CRTC3 targeting or control shRNAs one day post-isolation. Stable integration of lentiviral shRNA constructs was selected by addition of puromycin (3 μg/mL) on day 4 post-transduction. After 2 days, stably transduced BMDCs were released from selection and used in subsequent assays. […]
Total RNA was extracted using a NucleoSpin 96 RNA isolation kit (Macherey-Nagel). […] Relative gene expression was calculated from Ct values and normalized against ACTB mRNA levels as described previously (Pfaffl MW (2001) A new mathematical model for relative quantification in real-time RT-PCR. Nucleic acids research 29(9):e45). […]

BMDCs [3] = assay: Cytokine (cytometric bead array) and NO (Greiss) production by stimulated BMDCs
Method: as §1
C57BL/6 mice were euthanized and bone marrow harvested from femurs and tibias as described previously (Graham D B, et al. (2007) An ITAM-signaling pathway controls cross-presentation of particulate but not soluble antigens in dendritic cells. The Journal of experimental medicine 204(12):2889-2897). BMDCs were differentiated DMEM supplemented with 2 mM GlutaMAX, 10% (vol/vol) FBS, penicillin, streptomycin and 2% mouse GM-CSF conditioned media derived from TOPO cells. Cultures were differentiated for 7 days and routinely analyzed for >90% CD11c (APC anti-CD11c clone HL3; BD Biosciences) positivity by flow cytometry before use in experiments. Lentiviral transduction of bone marrow cultures was conducted by addition of 293T culture supernatants containing lentiviral particles encoding the CREB dependent luciferase reporter construct or CRTC3 targeting or control shRNAs one day post-isolation. Stable integration of lentiviral shRNA constructs was selected by addition of puromycin (3 μg/mL) on day 4 post-transduction. After 2 days, stably transduced BMDCs were released from selection and used in subsequent assays. Unless otherwise indicated, cells were treated for 2 days with PGE2 (5 μM) or HG-9-91-01 (0.5 μM) or an equivalent concentration of DMSO (≤0.5%) and then stimulated for 18 hr with LPS (100 ng/mL), R848 (10 μg/mL) or zymosan (4 μg/mL).
After stimulation of cells with microbial ligands, the culture medium was removed, clarified by centrifugation for 10 min at 14,000×g, and the concentration of TNF-α, IL-6, IL-10, IL-12p40, IL-1β and RANTES were measured using FlexSet Cytokine Bead Array (BD Biosciences) according to the manufacturer's instructions. Where indicated, ELISAs were used to detect IL-10 and IL-12p70 (BD Biosciences) according to the manufacturer's instructions. NO production was estimated based on nitrate content in culture medium using the Greiss reagent as described previously (Miletic A V, et al. (2007) Vav proteins control MyD88-dependent oxidative burst. Blood 109(8):3360-3368).

Question: How did the “fraction of Foxp3+ cells and IL-10 secretion of Treg's” value ([1]; 100 nM, 4 days) turn out when `COc1ccc(N(C(=O)Nc2c(C)cccc2C)c2cc(Nc3ccc(N4CCN(C)CC4)cc3)ncn2)c(OC)c1` [HG-9-91-01] was run?
Answer: did not increase the fraction of Foxp3^+ cells or promote IL-10 secretion

Question: What about the “concentrations toxic in Treg's and Tr1 cells” value ([1]; 4 days differentiation) of the same compound?
Answer: greater than 0.5 μM

Question: What about the “IL-10 secretion by Tr1 cells” value ([1]; non-toxic concentrations, 4 days) of the same compound?
Answer: not further enhanced

Question: And the “IL-10 mRNA levels” value (BMDCs [2])?
Answer: robustly enhanced

Question: What about the “abundance of Arg1 and Nos2 transcripts” value (BMDCs [2]) of the same compound?
Answer: significantly blunted

Question: And the IL-10 secretion (BMDCs [3]; BMDCs pre-treated, LPS, R848 or zymosan 18 hr)?
Answer: similarly induced

Question: And the IL-1β production (BMDCs [3]; BMDCs, stimulation with R848 or zymosan)?
Answer: suppressed

Question: And the “production of IL-12p40 and TNF-α” value (BMDCs [3]; BMDCs, versus PGE2, regardless of activating stimuli)?
Answer: suppressed to a significantly greater extent
